Measurements published in patent publication US20250204541A1, “GAS PHASE TREATMENT OF PRODUCE” (priority 2022, published 2025).
Entries after “also recorded” stand apart in the source; their conditions may differ.

Columns and labels:
Assay type in all cases: in vivo
Botrytis cinerea (Bc) = assay: Antifungal activity of vapor against Botrytis cinerea in grapes; details: vapor of 3 mL in a Petri dish for 72 hours
Protocol: (§1) Example 12. The antifungal activity of AITC and DADS vapor against Botrytis cinerea (Bc) in grapes was tested. All samples were wounded by making a 3 mm deep puncture in the skin. Samples were infected by dispensing 1000 Bc spores suspended in 10 μL of water in the wound. The test groups consisted of grapes that were: uninfected and untreated; infected and untreated; exposed to the vapor of 3 mL of AITC in a Petri dish for 72 hours; and exposed to the vapor of 3 mL of DADS in a Petri dish for 72 hours. FIG. 17 quantifies the infection results. […] Both AITC and DADS vapor were effective at controlling Bc mold. Treatment with AITC can potentially lead to changes in color or flavor of the grapes.

grapes = assay: Visible appearance of vapor-treated grapes
Protocol: as §1

mandarins = assay: Visible appearance of vapor-treated mandarins; details: 72 hours vapor of 3 mL in a Petri dish
Protocol: Example 1. The antifungal activity of diallyl disulfide (DADS) vapor against Penicillium digitatum (Pd) was tested in mandarins. All samples were wounded by puncturing with a screw and infected by dispensing 1000 Pd spores suspended in 10 μL of water into each wound. The test groups consisted of mandarins that were: untreated; dipped in a solution of 1 g/L of imazalil; and exposed for 72 hours to the vapor of 3 mL of DADS in a Petri dish.
Example 2. The antifungal activity of allyl isothiocyanate (AITC) and DADS vapor was tested against Pd and Penicillium italicum (Pi) in mandarins. All samples were wounded by puncturing with a screw. Mandarins were infected by dispensing either 1000 Pd spores or 1000 Pi spores suspended in 10 μL into the wound. The test groups consisted of mandarins that were: uninfected and untreated; uninfected and treated by dipping in a solution of 1 g/L of imazalil; infected with Pd and untreated; infected with Pd and exposed to AITC; infected with Pd and exposed to DADS; infected with Pi and untreated; infected with Pi and exposed to AITC; and infected with Pi and exposed to DADS. Exposure to AITC or DADS consisted of exposing the mandarins for 72 hours to the vapor of 3 mL of the respective compound dispensed in a Petri dish. […]
Example 5. […] The test groups were then left at ambient temperature, high humidity, and assessed for Pd mold after 6 days. […]

## C=CCN=C=S [AITC, allyl isothiocyanate]
Botrytis cinerea (Bc)
  effect on Bc mold: substantially eliminated Bc mold
grapes; in vivo
  visible appearance of treated fruit: darkening of the fruit

## C=CCSSCC=C [DADS, diallyl disulfide]
Botrytis cinerea (Bc)
  effect on Bc mold: substantially eliminated Bc mold
mandarins
  visible appearance of treated fruit: no visible degradation or discoloration; also recorded: No difference in appearance
grapes; grapes, vapor of 3 mL in a Petri dish for 72 hours
  visible appearance of treated fruit: appeared unchanged
